The target in assay [1] is T1, Human PDGFRα, cytoplasmic domain (GST-PDGFRα) (Homo sapiens, UniProt P16234).
T1 construct: made in house
The assay can be described thus: Human PDGFRα biochemical inhibition assay (off-chip Mobility Shift Assay).

Assay [2] concerns the target T2, Human PDGFRβ, cytoplasmic domain (GST-PDGFRβ) (Homo sapiens, UniProt P09619).
T2 construct: made in house
As to the kind of experiment: Human PDGFRβ biochemical inhibition assay (off-chip Mobility Shift Assay). The method in brief: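 GST-tagged cytoplasmic domain (aa 557-1106) from baculovirus was incubated 1 h at room temperature with compound, CSKtide, ATP at Km and Mg²⁺ in HEPES buffer, pH 7.5. Phosphorylated and unphosphorylated peptide were separated by off-chip mobility shift, and the product ratio P/(P+S) gave percent inhibition.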

T1 sequence (P16234 550-1089 T674I): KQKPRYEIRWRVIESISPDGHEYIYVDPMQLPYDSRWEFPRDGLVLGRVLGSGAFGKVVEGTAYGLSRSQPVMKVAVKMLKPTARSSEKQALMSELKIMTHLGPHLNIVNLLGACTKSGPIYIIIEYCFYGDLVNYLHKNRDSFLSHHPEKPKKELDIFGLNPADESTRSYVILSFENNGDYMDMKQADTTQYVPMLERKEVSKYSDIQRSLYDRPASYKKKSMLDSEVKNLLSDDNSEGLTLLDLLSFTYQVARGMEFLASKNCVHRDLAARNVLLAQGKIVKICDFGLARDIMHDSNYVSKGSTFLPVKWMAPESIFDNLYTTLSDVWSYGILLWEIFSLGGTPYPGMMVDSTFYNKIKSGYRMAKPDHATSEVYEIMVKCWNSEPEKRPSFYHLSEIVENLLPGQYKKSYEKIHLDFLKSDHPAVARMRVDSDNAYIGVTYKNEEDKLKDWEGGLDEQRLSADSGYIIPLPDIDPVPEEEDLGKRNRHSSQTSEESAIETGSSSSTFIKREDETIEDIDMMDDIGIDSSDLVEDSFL
T2 sequence (P09619 with tags, fused parts or gaps): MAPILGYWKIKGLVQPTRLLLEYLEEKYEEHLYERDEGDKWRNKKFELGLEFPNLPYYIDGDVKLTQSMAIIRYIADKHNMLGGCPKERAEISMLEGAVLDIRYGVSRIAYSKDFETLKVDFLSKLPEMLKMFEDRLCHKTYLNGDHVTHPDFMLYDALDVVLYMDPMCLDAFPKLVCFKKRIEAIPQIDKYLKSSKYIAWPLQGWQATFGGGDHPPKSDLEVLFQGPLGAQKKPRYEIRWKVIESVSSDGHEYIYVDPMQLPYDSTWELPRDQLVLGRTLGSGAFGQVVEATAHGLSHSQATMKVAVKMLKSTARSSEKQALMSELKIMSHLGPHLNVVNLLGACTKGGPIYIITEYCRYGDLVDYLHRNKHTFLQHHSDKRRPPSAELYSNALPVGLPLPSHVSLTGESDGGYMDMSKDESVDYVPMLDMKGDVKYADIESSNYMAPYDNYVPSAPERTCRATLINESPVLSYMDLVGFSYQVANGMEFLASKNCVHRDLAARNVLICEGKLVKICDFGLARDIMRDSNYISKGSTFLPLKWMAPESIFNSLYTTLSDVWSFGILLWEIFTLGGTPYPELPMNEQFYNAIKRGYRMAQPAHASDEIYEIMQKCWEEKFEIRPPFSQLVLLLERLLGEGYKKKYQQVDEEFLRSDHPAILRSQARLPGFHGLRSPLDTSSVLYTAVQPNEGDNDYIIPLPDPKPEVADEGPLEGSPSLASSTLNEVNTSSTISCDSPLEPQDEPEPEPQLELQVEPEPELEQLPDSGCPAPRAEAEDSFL

One may read the IC50 as the point on the concentration scale where inhibition reaches its midpoint. On to `CCn1cc2ncc(N[C@@H](C)c3cccc(NC(=O)c4ccc(N5CCOCC5)c(Cl)c4)c3)nc2n1` [Compound 360, (S)-3-chloro-N-(3-(1-((2-ethyl-2H-pyrazolo[3,4-b]pyrazin-6-yl)amino)ethyl)phenyl)-4-morpholinobenzamide], for which the IC50 in assay [1] and in assay [2] was < 300 nM each time.
On to `CCn1cc2ncc(N[C@@H](C)c3cccc(NC(=O)c4ccc(N5CCN(C)CC5)c(Cl)c4)c3)nc2n1` [Compound 361, (S)-3-chloro-N-(3-(1-((2-ethyl-2H-pyrazolo[3,4-b]pyrazin-6-yl)amino)ethyl)phenyl)-4-(4-methylpiperazin-1-yl)benzamide], for which the results for the IC50 in assay [1] and in assay [2] were < 300 nM and 300 to 1000 nM, respectively.
On to `CCOc1ncc(C(=O)Nc2cccc([C@H](C)Nc3cnc4cn(CC)nc4n3)c2)s1` [Compound 362, (S)-2-ethoxy-N-(3-(1-((2-ethyl-2H-pyrazolo[3,4-b]pyrazin-6-yl)amino)ethyl)phenyl)thiazole-5-carboxamide], for which the results for the IC50 in assay [1] and in assay [2] were < 300 nM and 300 to 1000 nM, respectively.
On to `CCn1cc2ncc(N[C@@H](C)c3cccc(NC(=O)c4cnc(CO)s4)c3)nc2n1` [Compound 363, (S)-N-(3-(1-((2-ethyl-2H-pyrazolo[3,4-b]pyrazin-6-yl)amino)ethyl)phenyl)-2-(hydroxymethyl)thiazole-5-carboxamide], for which the IC50 in assay [1] and in assay [2] was ≥ 1000 nM each time.
Turning to `CCNc1ncc(C(=O)Nc2cccc([C@H](C)Nc3cnc4cn(CC)nc4n3)c2)s1` [Compound 364, (S)-N-(3-(1-((2-ethyl-2H-pyrazolo[3,4-b]pyrazin-6-yl)amino)ethyl)phenyl)-2-(ethylamino)thiazole-5-carboxamide], the IC50 is < 300 nM in assay [1] and 300 to 1000 nM in assay [2].
For `CCn1cc2ncc(N[C@@H](C)c3cccc(NC(=O)c4cnc(C(N)=O)s4)c3)nc2n1` [Compound 365, (S)-N5-(3-(1-((2-ethyl-2H-pyrazolo[3,4-b]pyrazin-6-yl)amino)ethyl)phenyl)thiazole-2,5-dicarboxamide], the IC50 in assay [1] and in assay [2] was < 300 nM throughout.
As for `CCn1cc2ncc(N[C@@H](C)c3cccc(NC(=O)c4ccc(N5CCOCC5)c(F)c4)c3)nc2n1` [Compound 366, (S)-N-(3-(1-((2-ethyl-2H-pyrazolo[3,4-b]pyrazin-6-yl)amino)ethyl)phenyl)-3-fluoro-4-morpholinobenzamide], the IC50 in assay [1] and in assay [2] was < 300 nM in each case.
For `CCn1cc2ncc(N[C@@H](C)c3cccc(NC(=O)c4ccc(N5CCN(C)CC5)c(F)c4)c3)nc2n1` [Compound 367, (S)-N-(3-(1-((2-ethyl-2H-pyrazolo[3,4-b]pyrazin-6-yl)amino)ethyl)phenyl)-3-fluoro-4-(4-methylpiperazin-1-yl) benzamide], the IC50 in assay [1] is 300 to 1000 nM; in assay [2], ≥ 1000 nM.
For `CCn1cc2ncc(N[C@@H](C)c3cccc(NC(=O)c4ccoc4)c3)nc2n1` [Compound 368, (S)-N-(3-(1-((2-ethyl-2H-pyrazolo[3,4-b]pyrazin-6-yl)amino)ethyl)phenyl)furan-3-carboxamide] the same measures were ≥ 1000 nM and ≥ 1000 nM.
For the compound `CCn1cc2ncc(N[C@@H](C)c3cccc(NC(=O)c4ccc(C)o4)c3)nc2n1` [Compound 369, (S)-N-(3-(1-((2-ethyl-2H-pyrazolo[3,4-b]pyrazin-6-yl)amino)ethyl)phenyl)-5-methylfuran-2-carboxamide], the IC50 in assay [1] and in assay [2] was ≥ 1000 nM throughout.
For `CCn1cc2ncc(N[C@@H](C)c3cccc(NC(=O)c4cnc(NC(C)=O)s4)c3)nc2n1` [Compound 370, (S)-2-acetamido-N-(3-(1-((2-ethyl-2H-pyrazolo[3,4-b]pyrazin-6-yl)amino)ethyl)phenyl)thiazole-5-carboxamide], the figures for the IC50 in assay [1] and in assay [2] were 300 to 1000 nM and ≥ 1000 nM, respectively.
For `CCn1cc2ncc(N[C@@H](C)c3cccc(NC(=O)c4cnc(NC(C)C)c(C)c4)c3)nc2n1` [Compound 371, (S)-N-(3-(1-((2-ethyl-2H-pyrazolo[3,4-b]pyrazin-6-yl)amino)ethyl)phenyl)-6-(isopropylamino)-5-methylnicotinamide] the same measures were < 300 nM and 300 to 1000 nM.
Turning to `CCn1cc2ncc(N[C@@H](C)c3cccc(NC(=O)c4ccc(N5CCOCC5)nc4)c3)nc2n1` [Compound 372, (S)-N-(3-(1-((2-ethyl-2H-pyrazolo[3,4-b]pyrazin-6-yl)amino)ethyl)phenyl)-6-morpholinonicotinamide], the IC50 in assay [1] is 300 to 1000 nM; in assay [2], ≥ 1000 nM.
The matching figures for `CCn1cc2ncc(N[C@@H](C)c3cccc(NC(=O)c4ccc(CN(C)C)cc4)c3)nc2n1` [Compound 373, (S)-4-((dimethylamino)methyl)-N-(3-(1-((2-ethyl-2H-pyrazolo[3,4-b]pyrazin-6-yl)amino)ethyl)phenyl)benzamide]: < 300 nM and ≥ 1000 nM.
Turning to `CCn1cc2ncc(N[C@@H](C)c3cccc(NC(=O)c4ccc(CN5CCOCC5)cc4)c3)nc2n1` [Compound 374, (S)-N-(3-(1-((2-ethyl-2H-pyrazolo[3,4-b]pyrazin-6-yl)amino)ethyl)phenyl)-4-(morpholinomethyl)benzamide], the IC50 in assay [1] and in assay [2] was 300 to 1000 nM throughout.
On to `CCn1cc2ncc(N[C@@H](C)c3cccc(NC(=O)c4ccc(N5CCCC5)nc4)c3)nc2n1` [Compound 375, (S)-N-(3-(1-((2-ethyl-2H-pyrazolo[3,4-b]pyrazin-6-yl)amino)ethyl)phenyl)-6-(pyrrolidin-1-yl)nicotinamide], for which the IC50 in assay [1] was < 300 nM; in assay [2], 300 to 1000 nM.
The matching figures for `CCn1cc2ncc(N[C@@H](C)c3cccc(NC(=O)c4ccc(CN5CCN(C)CC5)cc4)c3)nc2n1` [Compound 376, (S)-N-(3-(1-((2-ethyl-2H-pyrazolo[3,4-b]pyrazin-6-yl)amino)ethyl)phenyl)-4-((4-methylpiperazin-1-yl)methyl) benzamide]: < 300 nM and < 300 nM.
The matching figures for `CCn1cc2ncc(N[C@@H](C)c3cccc(NC(=O)c4ccc(N(C)C)nc4)c3)nc2n1` [Compound 377, (S)-6-(dimethylamino)-N-(3-(1-((2-ethyl-2H-pyrazolo[3,4-b]pyrazin-6-yl)amino)ethyl)phenyl)nicotinamide]: 300 to 1000 nM and 300 to 1000 nM.
As for `CCn1cc2ncc(N[C@@H](C)c3cccc(NC(=O)c4ccc(N5CCN(C(=O)OC(C)(C)C)CC5)nc4)c3)nc2n1` [Compound 378, tert-butyl (S)-4-(5-((3-(1-((2-ethyl-2H-pyrazolo[3,4-b]pyrazin-6-yl)amino)ethyl)phenyl)carbamoyl)pyridin-2-yl) piperazine-1-carboxylate], the IC50 in assay [1] was < 300 nM; in assay [2], 300 to 1000 nM.
For the compound `CCn1cc2ncc(N[C@@H](C)c3cc(NC(=O)c4cnc(NC)c(C)c4)ccc3F)nc2n1` [Compound 379, (S)-N-(3-(1-((2-ethyl-2H-pyrazolo[3,4-b]pyrazin-6-yl)amino)ethyl)-4-fluorophenyl)-5-methyl-6-(methylamino) nicotinamide], the IC50 is < 300 nM in assay [1] and 300 to 1000 nM in assay [2].

Values taken from US20230102554A1 (GB002, INC., priority 2019, published 2023).
